Organism: Rattus norvegicus
Experiment: Open TG-GATES - Regimen: Daily Repeat
Type: toxicity, organism-based, Sprague-Dawley
Set-up: regimen Daily Repeat, gender Male, age 6 weeks
Details: in vivo, po, 1000 mg/kg, route gavage, dose level High; for Bas / Eos / Fbg / Ht / MCHC / Mono / Plat / RBC / Ret / WBC / MCV: tissue Blood; for KIDNEY_L / KIDNEY_R / KIDNEY_TOTAL: tissue Kidney; for ALT / AST / CRE / DBIL / GLC / IP / K / LDH / PL / RALB / TBIL / TC / TG / TP / gamma-GTP: tissue Plasma

SMILES: CC(C)OC(=O)C(C)(C)Oc1ccc(C(=O)c2ccc(Cl)cc2)cc1 [FENOFIBRATE]
- TERMINAL_BW (72 h, time 3 day): 215.9 g
- Bas (72 h, time 3 day): 0.4%
- Eos (72 h, time 3 day): 1%
- Fbg (72 h, time 3 day): 208.2 mg/dL
- Ht (72 h, time 3 day): 39.5%
- MCHC (72 h, time 3 day): 33%
- Mono (72 h, time 3 day): 3.6%
- Plat (72 h, time 3 day): 105.8 x10_4/uL
- RBC (72 h, time 3 day): 610.6 x10_4/ul
- Ret (72 h, time 3 day): 5.6%
- WBC (72 h, time 3 day): 91.7 x10_2/uL
- KIDNEY_L (72 h, time 3 day): 0.9 g
- KIDNEY_R (72 h, time 3 day): 1 g
- KIDNEY_TOTAL (72 h, time 3 day): 1.9 g
- ALT (72 h, time 3 day): 51.4 IU/L
- AST (72 h, time 3 day): 83.8 IU/L
- CRE (72 h, time 3 day): 0.2 mg/dL
- DBIL (72 h, time 3 day): 0.022 mg/dL
- GLC (72 h, time 3 day): 176.8 mg/dL
- IP (72 h, time 3 day): 7.3 mg/dL
- K (72 h, time 3 day): 4.3 meq/L
- LDH (72 h, time 3 day): 105.8 IU/L
- PL (72 h, time 3 day): 129.2 mg/dL
- RALB (72 h, time 3 day): 2.6 g/dL
- TBIL (72 h, time 3 day): 0.048 mg/dL
- TC (72 h, time 3 day): 57 mg/dL
- TG (72 h, time 3 day): 33.6 mg/dL
- TP (72 h, time 3 day): 5.4 g/dL
- gamma-GTP (72 h, time 3 day): 1 IU/L
- TERMINAL_BW ([…], time 7 day): 248.7 g
- TERMINAL_BW ([…], time 14 day): 269.5 g
- TERMINAL_BW ([…], time 28 day): 320.8 g
- Bas ([…], time 7 day): 0%
- Eos ([…], time 7 day): 1%
- Fbg ([…], time 7 day): 222.2 mg/dL
- Ht ([…], time 7 day): 39.1%
- MCHC ([…], time 7 day): 32.3%
- Mono ([…], time 7 day): 3.4%
- Plat ([…], time 7 day): 147.3 x10_4/uL
- RBC ([…], time 7 day): 612.2 x10_4/ul
- Ret ([…], time 7 day): 5.8%
- WBC ([…], time 7 day): 113.4 x10_2/uL
- Bas ([…], time 14 day): 0.4%
- Eos ([…], time 14 day): 1%
- Fbg ([…], time 14 day): 192.8 mg/dL
- Ht ([…], time 14 day): 39.9%
- MCHC ([…], time 14 day): 33.3%
- MCV ([…], time 14 day): 58.7 fL
- Mono ([…], time 14 day): 3.4%
- Plat ([…], time 14 day): 135.5 x10_4/uL
- RBC ([…], time 14 day): 679.4 x10_4/ul
- Ret ([…], time 14 day): 5.1%
- WBC ([…], time 14 day): 149.7 x10_2/uL
- Bas ([…], time 28 day): 0.4%
- Eos ([…], time 28 day): 1.2%
- Fbg ([…], time 28 day): 194.2 mg/dL
- Ht ([…], time 28 day): 40.9%
- MCHC ([…], time 28 day): 33.4%
- MCV ([…], time 28 day): 57.2 fL
- Mono ([…], time 28 day): 3.4%
- Plat ([…], time 28 day): 117.4 x10_4/uL
- RBC ([…], time 28 day): 716 x10_4/ul
- Ret ([…], time 28 day): 3.9%
- WBC ([…], time 28 day): 132.1 x10_2/uL
- KIDNEY_L ([…], time 7 day): 1.1 g
- KIDNEY_R ([…], time 7 day): 1.1 g
- KIDNEY_TOTAL ([…], time 7 day): 2.2 g
- KIDNEY_L ([…], time 14 day): 1.2 g
- KIDNEY_R ([…], time 14 day): 1.2 g
- KIDNEY_TOTAL ([…], time 14 day): 2.4 g
- KIDNEY_L ([…], time 28 day): 1.4 g
- KIDNEY_R ([…], time 28 day): 1.4 g
- KIDNEY_TOTAL ([…], time 28 day): 2.8 g
- ALT ([…], time 7 day): 45.8 IU/L
- AST ([…], time 7 day): 80.6 IU/L
- CRE ([…], time 7 day): 0.2 mg/dL
- DBIL ([…], time 7 day): 0.018 mg/dL
- GLC ([…], time 7 day): 178.8 mg/dL
- IP ([…], time 7 day): 7.4 mg/dL
- K ([…], time 7 day): 4.4 meq/L
- LDH ([…], time 7 day): 122.6 IU/L
- PL ([…], time 7 day): 142 mg/dL
- RALB ([…], time 7 day): 3 g/dL
- TBIL ([…], time 7 day): 0.034 mg/dL
- TC ([…], time 7 day): 65.8 mg/dL
- TG ([…], time 7 day): 38 mg/dL
- TP ([…], time 7 day): 6.1 g/dL
- gamma-GTP ([…], time 7 day): 1 IU/L
- ALT ([…], time 14 day): 70 IU/L
- AST ([…], time 14 day): 160.6 IU/L
- CRE ([…], time 14 day): 0.2 mg/dL
- DBIL ([…], time 14 day): 0.022 mg/dL
- GLC ([…], time 14 day): 170.2 mg/dL
- IP ([…], time 14 day): 6.6 mg/dL
- K ([…], time 14 day): 4.1 meq/L
- LDH ([…], time 14 day): 226.2 IU/L
- PL ([…], time 14 day): 138 mg/dL
- RALB ([…], time 14 day): 2.9 g/dL
- TBIL ([…], time 14 day): 0.052 mg/dL
- TC ([…], time 14 day): 50.6 mg/dL
- TG ([…], time 14 day): 45.4 mg/dL
- TP ([…], time 14 day): 6 g/dL
- gamma-GTP ([…], time 14 day): 1 IU/L
- ALT ([…], time 28 day): 55.8 IU/L
- AST ([…], time 28 day): 132 IU/L
- CRE ([…], time 28 day): 0.2 mg/dL
- DBIL ([…], time 28 day): 0.024 mg/dL
- GLC ([…], time 28 day): 176 mg/dL
- IP ([…], time 28 day): 7.3 mg/dL
- K ([…], time 28 day): 3.7 meq/L
- LDH ([…], time 28 day): 205.2 IU/L
- PL ([…], time 28 day): 139.8 mg/dL
- RALB ([…], time 28 day): 2.9 g/dL
- TBIL ([…], time 28 day): 0.06 mg/dL
- TC ([…], time 28 day): 62.4 mg/dL
- TG ([…], time 28 day): 47.6 mg/dL
- TP ([…], time 28 day): 6.2 g/dL
- gamma-GTP ([…], time 28 day): 1.2 IU/L

Reference: ChEMBL document CHEMBL3885861, “Open TG-GATES”
